Data as given in paper PMC9627135 (Cancer discovery, 2022).

Key:
[1] = system: HOXA9/10 expression; assay: Time course of HOXA9/10 expression; assay type: cell-based; details: Supplementary Fig. S6D, S6E
[2] = system: primary human hepatocytes; details: cited from earlier work
[3] = molecular target: ENL-FKBP12(F36V) (Homo sapiens, UniProt Q03111); assay: dTAG-mediated degradation of ENL-FKBP12; assay type: cell-based; details: treatment for 6 or 24 hours

SMILES: CC(C)N(C[C@H]1O[C@@H](n2cnc3c(N)ncnc32)[C@H](O)[C@@H]1O)[C@H]1C[C@@H](CCc2nc3cc(C(C)(C)C)ccc3[nH]2)C1 [EPZ-5676]
- kinetics of suppression of HOXA9/10 expression [1]: suppressed expression of the same genes at much later time points

SMILES: C[C@H]1CCCN1Cc1nc2cc(NC(=O)c3ccc4c(cnn4C)c3)ccc2[nH]1 [SGC-iMLLT]
- half-life in primary human hepatocytes [2]: modest half-life

SMILES: CC[C@H](C(=O)N1CCCC[C@H]1C(=O)O[C@H](CCc1ccc(OC)c(OC)c1)c1ccccc1OCC(=O)NCCCCCCOc1cccc2c1C(=O)N(C1CCC(=O)NC1=O)C2=O)c1cc(OC)c(OC)c(OC)c1 (stereo partly drawn) [dTAG13]
- level of ENL-FKBP12 proteins [3]: substantial decrease of ENL-FKBP12 proteins
